Test results reported in ChEMBL document CHEMBL1201862, “PubChem BioAssay data set” (2004).
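Assay format: 96-well plates, 48-hour exposure. Here, GI50 denotes the concentration required for 50% inhibition of growth.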 Calls of active or inactive are those of the source. No stated cut-off is given here; in the data, active = GI50 up to about 1.1 µM and inactive = higher.

Experiments:
Test in all cases: growth of human tumour cells (NCI), 48 h
[1] = system: NCI-H522
[2] = system: NCI/ADR-RES
[3] = system: SNB-75
[4] = system: MCF7
[5] = system: UO-31
[6] = system: SNB-19
[7] = system: RXF 393
[8] = system: HT-29
[9] = system: OVCAR-8
[10] = system: KM12
[11] = system: A498
[12] = system: TK-10
[13] = system: OVCAR-4
[14] = system: CAKI-1
[15] = system: OVCAR-5
[16] = system: ACHN
[17] = system: SK-OV-3
[18] = system: NCI-H23
[19] = system: MDA-MB-231
[20] = system: U-251
[21] = system: K562
[22] = system: SK-MEL-2
[23] = system: MDA-N
[24] = system: T47D
[25] = system: IGROV-1
[26] = system: 786-0
[27] = system: SW-620
[28] = system: A549
[29] = system: SF-539
[30] = system: MDA-MB-435
[31] = system: SK-MEL-28
[32] = system: HCT-116
[33] = system: SF-268
[34] = system: SK-MEL-5
[35] = system: SR
[36] = system: CCRF-CEM
[37] = system: UACC-257
[38] = system: MOLT-4
[39] = system: Malme-3M
[40] = system: PC-3
[41] = system: HL-60
[42] = system: EKVX
[43] = system: HOP-62
[44] = system: M14
[45] = system: OVCAR-3
[46] = system: HCT-15
[47] = system: COLO 205
[48] = system: SN12C
[49] = system: NCI-H226
[50] = system: SF-295
[51] = system: DU-145
[52] = system: HOP-92
[53] = system: Hs-578T
[54] = system: LOX IMVI
[55] = system: RPMI-8226
[56] = system: NCI-H460
[57] = system: UACC-62
[58] = system: HCC 2998

Compound: O=C1NC(N2CCCCC2)=N/C1=C\c1ccccc1O
- GI50 [1]: 19.8 µM (inactive)
- GI50 [2]: > 100 µM (inactive)
- GI50 [3]: 27.9 µM (inactive)
- GI50 [4]: > 100 µM (inactive)
- GI50 [5]: > 100 µM (inactive)
- GI50 [6]: > 100 µM (inactive)
- GI50 [7]: > 100 µM (inactive)
- GI50 [8]: > 100 µM (inactive)
- GI50 [9]: > 100 µM (inactive)
- GI50 [10]: > 100 µM (inactive)
- GI50 [11]: > 100 µM (inactive)
- GI50 [12]: > 100 µM (inactive)
- GI50 [13]: 13 µM (inactive)
- GI50 [14]: > 100 µM (inactive)
- GI50 [15]: > 100 µM (inactive)
- GI50 [16]: > 100 µM (inactive)
- GI50 [17]: > 100 µM (inactive)
- GI50 [18]: > 100 µM (inactive)
- GI50 [19]: > 100 µM (inactive)
- GI50 [20]: > 100 µM (inactive)
- GI50 [21]: > 100 µM (inactive)
- GI50 [22]: > 100 µM (inactive)
- GI50 [23]: > 100 µM (inactive)
- GI50 [24]: > 100 µM (inactive)
- GI50 [25]: > 100 µM (inactive)
- GI50 [26]: > 100 µM (inactive)
- GI50 [27]: > 100 µM (inactive)
- GI50 [28]: > 100 µM (inactive)
- GI50 [29]: 37.1 µM (inactive)
- GI50 [30]: > 100 µM (inactive)
- GI50 [31]: > 100 µM (inactive)
- GI50 [32]: > 100 µM (inactive)
- GI50 [33]: > 100 µM (inactive)
- GI50 [34]: 50.2 µM (inactive)
- GI50 [35]: > 10 µM (inactive)
- GI50 [36]: > 100 µM (inactive)
- GI50 [37]: > 100 µM (inactive)
- GI50 [38]: > 100 µM (inactive)
- GI50 [39]: 23 µM (inactive)
- GI50 [40]: > 100 µM (inactive)
- GI50 [41]: 43.5 µM (inactive)
- GI50 [42]: > 100 µM (inactive)
- GI50 [43]: > 100 µM (inactive)
- GI50 [44]: > 100 µM (inactive)
- GI50 [45]: > 100 µM (inactive)
- GI50 [46]: > 100 µM
- GI50 [47]: > 100 µM (inactive)
- GI50 [48]: > 100 µM (inactive)
- GI50 [49]: 36.6 µM (inactive)
- GI50 [50]: > 100 µM (inactive)
- GI50 [51]: > 100 µM (inactive)
- GI50 [52]: > 100 µM (inactive)
- GI50 [53]: 77.3 µM (inactive)
- GI50 [54]: > 100 µM (inactive)
- GI50 [55]: > 100 µM (inactive)

Compound: COc1ccc(C2c3cc4c(cc3OC(N3CCCCC3)C2C)OCO4)cc1 (stereo not drawn)
- GI50 [1]: 83.6 µM (inactive)
- GI50 [2]: > 100 µM (inactive)
- GI50 [3]: 35.6 µM (inactive)
- GI50 [4]: > 100 µM (inactive)
- GI50 [5]: 85.3 µM (inactive)
- GI50 [6]: > 100 µM (inactive)
- GI50 [8]: > 100 µM (inactive)
- GI50 [9]: > 100 µM (inactive)
- GI50 [10]: > 100 µM (inactive)
- GI50 [12]: > 100 µM (inactive)
- GI50 [14]: 36.6 µM (inactive)
- GI50 [15]: > 100 µM (inactive)
- GI50 [16]: 41.2 µM (inactive)
- GI50 [18]: 58.5 µM (inactive)
- GI50 [21]: > 100 µM (inactive)
- GI50 [22]: > 100 µM (inactive)
- GI50 [23]: > 100 µM (inactive)
- GI50 [24]: 71 µM (inactive)
- GI50 [25]: > 100 µM (inactive)
- GI50 [26]: 80.2 µM (inactive)
- GI50 [27]: > 100 µM (inactive)
- GI50 [28]: 85.1 µM (inactive)
- GI50 [29]: > 100 µM (inactive)
- GI50 [30]: 27 µM (inactive)
- GI50 [31]: > 100 µM (inactive)
- GI50 [32]: > 100 µM (inactive)
- GI50 [33]: > 100 µM (inactive)
- GI50 [56]: > 100 µM (inactive)
- GI50 [34]: > 100 µM (inactive)
- GI50 [35]: > 100 µM (inactive)
- GI50 [36]: > 100 µM (inactive)
- GI50 [37]: > 100 µM (inactive)
- GI50 [38]: > 100 µM (inactive)
- GI50 [40]: > 100 µM (inactive)
- GI50 [42]: > 100 µM (inactive)
- GI50 [43]: > 100 µM (inactive)
- GI50 [44]: > 100 µM (inactive)
- GI50 [45]: > 100 µM (inactive)
- GI50 [46]: > 100 µM
- GI50 [57]: > 100 µM (inactive)
- GI50 [47]: > 100 µM (inactive)
- GI50 [48]: > 100 µM (inactive)
- GI50 [50]: 54.6 µM (inactive)
- GI50 [51]: > 100 µM (inactive)
- GI50 [53]: 33.6 µM (inactive)
- GI50 [54]: > 100 µM (inactive)
- GI50 [55]: > 100 µM (inactive)

Compound: O=c1[nH]nc(-c2ccccc2)n1-c1cccc([N+](=O)[O-])c1
- GI50 [1]: > 100 µM (inactive)
- GI50 [2]: > 100 µM (inactive)
- GI50 [3]: > 100 µM (inactive)
- GI50 [4]: > 100 µM (inactive)
- GI50 [5]: 38.5 µM (inactive)
- GI50 [6]: > 100 µM (inactive)
- GI50 [7]: > 100 µM (inactive)
- GI50 [8]: > 100 µM (inactive)
- GI50 [9]: > 100 µM (inactive)
- GI50 [10]: > 100 µM (inactive)
- GI50 [11]: > 100 µM (inactive)
- GI50 [12]: > 100 µM (inactive)
- GI50 [13]: > 100 µM (inactive)
- GI50 [14]: 89.5 µM (inactive)
- GI50 [15]: > 100 µM (inactive)
- GI50 [16]: > 100 µM (inactive)
- GI50 [17]: > 100 µM (inactive)
- GI50 [18]: > 100 µM (inactive)
- GI50 [19]: > 100 µM (inactive)
- GI50 [20]: > 100 µM (inactive)
- GI50 [21]: > 100 µM (inactive)
- GI50 [22]: > 100 µM (inactive)
- GI50 [23]: > 100 µM (inactive)
- GI50 [24]: > 100 µM (inactive)
- GI50 [25]: > 100 µM (inactive)
- GI50 [26]: > 100 µM (inactive)
- GI50 [27]: > 100 µM (inactive)
- GI50 [28]: > 100 µM (inactive)
- GI50 [29]: > 100 µM (inactive)
- GI50 [30]: > 100 µM (inactive)
- GI50 [31]: > 100 µM (inactive)
- GI50 [32]: > 100 µM (inactive)
- GI50 [33]: > 100 µM (inactive)
- GI50 [56]: > 100 µM (inactive)
- GI50 [34]: > 100 µM (inactive)
- GI50 [35]: > 100 µM (inactive)
- GI50 [36]: > 100 µM (inactive)
- GI50 [37]: > 100 µM (inactive)
- GI50 [38]: > 100 µM (inactive)
- GI50 [58]: > 100 µM (inactive)
- GI50 [39]: > 100 µM (inactive)
- GI50 [42]: > 100 µM (inactive)
- GI50 [43]: > 100 µM (inactive)
- GI50 [44]: > 100 µM (inactive)
- GI50 [45]: > 100 µM (inactive)
- GI50 [46]: > 100 µM
- GI50 [57]: > 100 µM (inactive)
- GI50 [47]: > 100 µM (inactive)
- GI50 [48]: > 100 µM (inactive)
- GI50 [49]: > 100 µM (inactive)
- GI50 [50]: > 100 µM (inactive)
- GI50 [51]: > 100 µM (inactive)
- GI50 [52]: > 100 µM (inactive)
- GI50 [53]: > 100 µM (inactive)
- GI50 [54]: > 100 µM (inactive)
- GI50 [55]: > 100 µM (inactive)
